Data published in patent publication US11090319B2, “Therapeutic uses of pharmaceutical compositions comprising cyclic boronic acid ester derivatives” (Melinta Subsidiary Corp., priority 2010, dated 2021).

Key:
Assay in all cases: Ceftazidime MIC with fixed concentration of BLI
Format in all cases: cell-based
[1] = system: AB1054 Acinetobacter baumannii OXA-23; conditions: derivative at 10 μg/mL; AB1054 OXA-23
Protocol: (§1) Next, ceftazidime potentiation activity of several cyclic boronic acid ester derivatives was tested using a larger panel of strains expressing β-lactamase hydrolyzing enzymes. Ceftazidime MICs were determined alone and in the presence of fixed concentrations of various cyclic boronic acid ester derivatives.

[2] = system: AB1057 Acinetobacter baumannii OXA-58; conditions: derivative at 10 μg/mL; AB1057 OXA-58
Protocol: as §1

[3] = system: CF1000 Citrobacter freundii Hyper AmpC expression; conditions: derivative at 10 μg/mL
Protocol: as §1

[4] = system: EC1004 Escherichia coli CMY-2; conditions: derivative at 10 μg/mL; EC1004 CMY-2
Protocol: as §1

[5] = system: EC1006 Escherichia coli FOX-5; conditions: derivative at 10 μg/mL; EC1006 FOX-5
Protocol: as §1

[6] = system: EC1008 Escherichia coli CTX-M3; conditions: derivative at 10 μg/mL
Protocol: as §1

[7] = system: EC1009 Escherichia coli TEM-10; conditions: derivative at 10 μg/mL; EC1009 TEM-10
Protocol: as §1

[8] = system: EC1010 Escherichia coli CMY-6; conditions: derivative at 10 μg/mL; EC1010 CMY-6
Protocol: as §1

[9] = system: EC1011 Escherichia coli TEM-26; conditions: derivative at 10 μg/mL; EC1011 TEM-26
Protocol: as §1

[10] = system: EC1012 Escherichia coli TEM-12; conditions: derivative at 10 μg/mL; EC1012 TEM-12
Protocol: as §1

[11] = system: EC1014 Escherichia coli DHA-1; conditions: derivative at 10 μg/mL; EC1014 DHA-1
Protocol: as §1

[12] = system: ECL1002 Enterobacter cloacae Hyper AmpC expression; conditions: derivative at 10 μg/mL
Protocol: as §1

[13] = system: KP1004 Klebsiella pneumoniae KPC-2; conditions: derivative at 10 μg/mL; KP1004 KPC-2
Protocol: as §1

[14] = system: KP1005 Klebsiella pneumoniae CTX-M-14; conditions: derivative at 10 μg/mL; KP1005 CTX-M-14
Protocol: as §1

[15] = system: KP1007 Klebsiella pneumoniae OXA-10; conditions: derivative at 10 μg/mL; KP1007 OXA-10
Protocol: as §1

[16] = system: KP1008 Klebsiella pneumoniae KPC-2; conditions: derivative at 10 μg/mL; KP1008 KPC-2
Protocol: as §1

[17] = system: KP1009 Klebsiella pneumoniae CTX-M-15; conditions: derivative at 10 μg/mL; KP1009 CTX-M-15
Protocol: as §1

[18] = system: KP1010 Klebsiella pneumoniae SHV-12; conditions: derivative at 10 μg/mL; KP1010 SHV-12
Protocol: as §1

[19] = system: KP1012 Klebsiella pneumoniae SHV-18; conditions: derivative at 10 μg/mL; KP1012 SHV-18
Protocol: as §1

[20] = system: KX1000 Klebsiella oxytoca OXA-2; conditions: derivative at 10 μg/mL; KX1000 OXA-2
Protocol: as §1

[21] = system: PAM2035 Pseudomonas aeruginosa ampC mexA:tet; conditions: derivative at 10 μg/mL
Protocol: as §1

[22] = system: ec300 Escherichia coli TEM-3; conditions: derivative at 10 μg/mL; ec300 TEM-3
Protocol: as §1

[23] = system: ec301 Escherichia coli TEM-6; conditions: derivative at 10 μg/mL; ec301 TEM-6
Protocol: as §1

[24] = system: ec302 Escherichia coli TEM-10; conditions: derivative at 10 μg/mL; ec302 TEM-10
Protocol: as §1

[25] = system: ec303 Escherichia coli TEM-12; conditions: derivative at 10 μg/mL; ec303 TEM-12
Protocol: as §1

[26] = system: ec306 Escherichia coli SHV-2; conditions: derivative at 10 μg/mL; ec306 SHV-2
Protocol: as §1

[27] = system: ec307 Escherichia coli SHV-4; conditions: derivative at 10 μg/mL; ec307 SHV-4
Protocol: as §1

[28] = system: ec308 Escherichia coli SHV-5; conditions: derivative at 10 μg/mL; ec308 SHV-5
Protocol: as §1

[29] = system: ec309 Escherichia coli MIR-1; conditions: derivative at 10 μg/mL; ec309 MIR-1
Protocol: as §1

[30] = system: ec310 Escherichia coli ACT-1; conditions: derivative at 10 μg/mL; ec310 ACT-1
Protocol: as §1

[31] = system: pa1063 Pseudomonas aeruginosa GES-1; conditions: derivative at 10 μg/mL; pa1063 GES-1
Protocol: as §1

Compound | Ceftazidime MIC with cyclic boronic acid ester derivative [1] | Ceftazidime MIC with cyclic boronic acid ester derivative [2] | Ceftazidime MIC with cyclic boronic acid ester derivative [3] | Ceftazidime MIC with cyclic boronic acid ester derivative [4] | Ceftazidime MIC with cyclic boronic acid ester derivative [5] | Ceftazidime MIC with cyclic boronic acid ester derivative [6] | Ceftazidime MIC with cyclic boronic acid ester derivative [7] | Ceftazidime MIC with cyclic boronic acid ester derivative [8] | Ceftazidime MIC with cyclic boronic acid ester derivative [9] | Ceftazidime MIC with cyclic boronic acid ester derivative [10] | Ceftazidime MIC with cyclic boronic acid ester derivative [11] | Ceftazidime MIC with cyclic boronic acid ester derivative [12] | Ceftazidime MIC with cyclic boronic acid ester derivative [13] | Ceftazidime MIC with cyclic boronic acid ester derivative [14] | Ceftazidime MIC with cyclic boronic acid ester derivative [15] | Ceftazidime MIC with cyclic boronic acid ester derivative [16] | Ceftazidime MIC with cyclic boronic acid ester derivative [17] | Ceftazidime MIC with cyclic boronic acid ester derivative [18] | Ceftazidime MIC with cyclic boronic acid ester derivative [19] | Ceftazidime MIC with cyclic boronic acid ester derivative [20] | also measured
O=C(O)CC1CC[C@H](NC(=O)C2CC2)B(O)O1 (stereo partly drawn) [Compound 4, 2-((3R)-3-(cyclopropanecarboxamido)-2-hydroxy-1,2-oxaborinan-6-yl)acetic acid] | Z (MIC of greater than 8 μg/mL) | Z (MIC of greater than 8 μg/mL) | Z (MIC of greater than 8 μg/mL) | Y (MIC of greater than 1 μg/mL to 8 μg/mL) | Z (MIC of greater than 8 μg/mL) | Y (MIC of greater than 1 μg/mL to 8 μg/mL) | Z (MIC of greater than 8 μg/mL) | Y (MIC of greater than 1 μg/mL to 8 μg/mL) | Z (MIC of greater than 8 μg/mL) | Z (MIC of greater than 8 μg/mL) | Y (MIC of greater than 1 μg/mL to 8 μg/mL) | Y (MIC of greater than 1 μg/mL to 8 μg/mL) | Y (MIC of greater than 1 μg/mL to 8 μg/mL) | Z (MIC of greater than 8 μg/mL) | Z (MIC of greater than 8 μg/mL) | X (MIC of 1 μg/mL or less) | Z (MIC of greater than 8 μg/mL) | Z (MIC of greater than 8 μg/mL) | Z (MIC of greater than 8 μg/mL) | Y (MIC of greater than 1 μg/mL to 8 μg/mL) | Ceftazidime MIC with cyclic boronic acid ester derivative [21]: Z (MIC of greater than 8 μg/mL); Ceftazidime MIC with cyclic boronic acid ester derivative [22]: Z (MIC of greater than 8 μg/mL); Ceftazidime MIC with cyclic boronic acid ester derivative [23]: Z (MIC of greater than 8 μg/mL); Ceftazidime MIC with cyclic boronic acid ester derivative [24]: Z (MIC of greater than 8 μg/mL); Ceftazidime MIC with cyclic boronic acid ester derivative [25]: Z (MIC of greater than 8 μg/mL); Ceftazidime MIC with cyclic boronic acid ester derivative [26]: Z (MIC of greater than 8 μg/mL); Ceftazidime MIC with cyclic boronic acid ester derivative [27]: Z (MIC of greater than 8 μg/mL); Ceftazidime MIC with cyclic boronic acid ester derivative [28]: Z (MIC of greater than 8 μg/mL); Ceftazidime MIC with cyclic boronic acid ester derivative [29]: Y (MIC of greater than 1 μg/mL to 8 μg/mL); Ceftazidime MIC with cyclic boronic acid ester derivative [30]: Y (MIC of greater than 1 μg/mL to 8 μg/mL); Ceftazidime MIC with cyclic boronic acid ester derivative [31]: Z (MIC of greater than 8 μg/mL)
O=C(O)C[C@@H]1CC[C@H](NC(=O)Cc2cccs2)B(O)O1 [Compound 5, 2-((3R,6S)-2-hydroxy-3-(2-(thiophen-2-yl)acetamido)-1,2-oxaborinan-6-yl)acetic acid] | Z (MIC of greater than 8 μg/mL) | Z (MIC of greater than 8 μg/mL) | Y (MIC of greater than 1 μg/mL to 8 μg/mL) | Y (MIC of greater than 1 μg/mL to 8 μg/mL) | Y (MIC of greater than 1 μg/mL to 8 μg/mL) | Y (MIC of greater than 1 μg/mL to 8 μg/mL) | Z (MIC of greater than 8 μg/mL) | Y (MIC of greater than 1 μg/mL to 8 μg/mL) | Z (MIC of greater than 8 μg/mL) | Y (MIC of greater than 1 μg/mL to 8 μg/mL) | X (MIC of 1 μg/mL or less) | Y (MIC of greater than 1 μg/mL to 8 μg/mL) | Y (MIC of greater than 1 μg/mL to 8 μg/mL) | Z (MIC of greater than 8 μg/mL) | Y (MIC of greater than 1 μg/mL to 8 μg/mL) | X (MIC of 1 μg/mL or less) | Z (MIC of greater than 8 μg/mL) | Y (MIC of greater than 1 μg/mL to 8 μg/mL) | Y (MIC of greater than 1 μg/mL to 8 μg/mL) | Y (MIC of greater than 1 μg/mL to 8 μg/mL) | Ceftazidime MIC with cyclic boronic acid ester derivative [21]: Y (MIC of greater than 1 μg/mL to 8 μg/mL); Ceftazidime MIC with cyclic boronic acid ester derivative [22]: Y (MIC of greater than 1 μg/mL to 8 μg/mL); Ceftazidime MIC with cyclic boronic acid ester derivative [23]: Z (MIC of greater than 8 μg/mL); Ceftazidime MIC with cyclic boronic acid ester derivative [24]: Z (MIC of greater than 8 μg/mL); Ceftazidime MIC with cyclic boronic acid ester derivative [25]: Y (MIC of greater than 1 μg/mL to 8 μg/mL); Ceftazidime MIC with cyclic boronic acid ester derivative [26]: Z (MIC of greater than 8 μg/mL); Ceftazidime MIC with cyclic boronic acid ester derivative [27]: Y (MIC of greater than 1 μg/mL to 8 μg/mL); Ceftazidime MIC with cyclic boronic acid ester derivative [28]: Z (MIC of greater than 8 μg/mL); Ceftazidime MIC with cyclic boronic acid ester derivative [29]: X (MIC of 1 μg/mL or less); Ceftazidime MIC with cyclic boronic acid ester derivative [30]: X (MIC of 1 μg/mL or less); Ceftazidime MIC with cyclic boronic acid ester derivative [31]: Z (MIC of greater than 8 μg/mL)
